BigSolDB 2.1

O=C1C=CC(=O)N1c1cc(F)c(Br)c(F)c1
solubility (mole fraction) (in 1,4-dioxane, 287.65 K): 0.0122
solubility (mole fraction) (in 1,4-dioxane, 290.65 K): 0.0133
solubility (mole fraction) (in 1,4-dioxane, 293.85 K): 0.0146
solubility (mole fraction) (in 1,4-dioxane, 297.15 K): 0.016
solubility (mole fraction) (in 1,4-dioxane, 302.05 K): 0.0183
solubility (mole fraction) (in 1,4-dioxane, 306.25 K): 0.0206
solubility (mole fraction) (in 1,4-dioxane, 310.05 K): 0.023
solubility (mole fraction) (in 1,4-dioxane, 317.15 K): 0.0281
solubility (mole fraction) (in 1,4-dioxane, 321.65 K): 0.0318
solubility (mole fraction) (in 1,4-dioxane, 324.45 K): 0.0342
solubility (mole fraction) (in 1,4-dioxane, 330.85 K): 0.0408
solubility (mole fraction) (in 1,4-dioxane, 335.35 K): 0.0464
solubility (mole fraction) (in 1,4-dioxane, 339.15 K): 0.0513
solubility (mole fraction) (in 1,4-dioxane, 342.25 K): 0.0558
solubility (mole fraction) (in 1,4-dioxane, 347.25 K): 0.0639
solubility (mole fraction) (in 1,4-dioxane, 353.65 K): 0.0759
solubility (mole fraction) (in 2-butanone, 289.75 K): 0.0086
solubility (mole fraction) (in 2-butanone, 299.25 K): 0.0112
solubility (mole fraction) (in 2-butanone, 303.5 K): 0.0128
solubility (mole fraction) (in 2-butanone, 308.75 K): 0.0149
solubility (mole fraction) (in 2-butanone, 313 K): 0.017
solubility (mole fraction) (in 2-butanone, 316.25 K): 0.0187
solubility (mole fraction) (in 2-butanone, 318.6 K): 0.0202
solubility (mole fraction) (in 2-butanone, 321.75 K): 0.022
solubility (mole fraction) (in 2-butanone, 324.25 K): 0.0237
solubility (mole fraction) (in 2-butanone, 327.05 K): 0.0257
solubility (mole fraction) (in 2-butanone, 331.95 K): 0.0296
solubility (mole fraction) (in 2-butanone, 335.25 K): 0.0326
solubility (mole fraction) (in 2-butanone, 338.85 K): 0.036
solubility (mole fraction) (in 2-butanone, 341.55 K): 0.039
solubility (mole fraction) (in 2-butanone, 343.5 K): 0.0411
solubility (mole fraction) (in 2-butanone, 345.25 K): 0.0432
solubility (mole fraction) (in DMF, 289.45 K): 0.0208
solubility (mole fraction) (in DMF, 293.65 K): 0.0228
solubility (mole fraction) (in DMF, 300.83 K): 0.0269
solubility (mole fraction) (in DMF, 305.65 K): 0.0301
solubility (mole fraction) (in DMF, 308.85 K): 0.0324
solubility (mole fraction) (in DMF, 317.55 K): 0.0398
solubility (mole fraction) (in DMF, 320.45 K): 0.0426
solubility (mole fraction) (in DMF, 322.95 K): 0.0452
solubility (mole fraction) (in DMF, 325.25 K): 0.0477
solubility (mole fraction) (in DMF, 333.55 K): 0.0582
solubility (mole fraction) (in DMF, 337.65 K): 0.0643
solubility (mole fraction) (in DMF, 342.65 K): 0.0722
solubility (mole fraction) (in DMF, 346.65 K): 0.0794
solubility (mole fraction) (in DMF, 350.75 K): 0.0876
solubility (mole fraction) (in DMF, 353.35 K): 0.0932
solubility (mole fraction) (in DMF, 356.25 K): 0.1
solubility (mole fraction) (in DMSO, 289.35 K): 0.0116
solubility (mole fraction) (in DMSO, 293.65 K): 0.0131
solubility (mole fraction) (in DMSO, 297.05 K): 0.0143
solubility (mole fraction) (in DMSO, 301.45 K): 0.0161
solubility (mole fraction) (in DMSO, 305.95 K): 0.0184
solubility (mole fraction) (in DMSO, 309.45 K): 0.0202
solubility (mole fraction) (in DMSO, 314.05 K): 0.0231
solubility (mole fraction) (in DMSO, 318.15 K): 0.026
solubility (mole fraction) (in DMSO, 324.55 K): 0.0314
solubility (mole fraction) (in DMSO, 328.05 K): 0.0348
solubility (mole fraction) (in DMSO, 333.65 K): 0.0406
solubility (mole fraction) (in DMSO, 338.85 K): 0.0473
solubility (mole fraction) (in DMSO, 342.55 K): 0.0527
solubility (mole fraction) (in DMSO, 346.05 K): 0.058
solubility (mole fraction) (in DMSO, 349.35 K): 0.0637
solubility (mole fraction) (in DMSO, 355.95 K): 0.0768
solubility (mole fraction) (in cyclohexanone, 285.15 K): 0.0129
solubility (mole fraction) (in cyclohexanone, 291.25 K): 0.0151
solubility (mole fraction) (in cyclohexanone, 295.15 K): 0.0167
solubility (mole fraction) (in cyclohexanone, 300.15 K): 0.0191
solubility (mole fraction) (in cyclohexanone, 305.65 K): 0.0221
solubility (mole fraction) (in cyclohexanone, 311.65 K): 0.0259
solubility (mole fraction) (in cyclohexanone, 316.55 K): 0.0295
solubility (mole fraction) (in cyclohexanone, 321.85 K): 0.0342
solubility (mole fraction) (in cyclohexanone, 324.95 K): 0.037
solubility (mole fraction) (in cyclohexanone, 328.75 K): 0.0411
solubility (mole fraction) (in cyclohexanone, 333.25 K): 0.0462
solubility (mole fraction) (in cyclohexanone, 337.35 K): 0.0515
solubility (mole fraction) (in cyclohexanone, 341.35 K): 0.0572
solubility (mole fraction) (in cyclohexanone, 348.35 K): 0.069
solubility (mole fraction) (in cyclohexanone, 351.65 K): 0.0751
solubility (mole fraction) (in cyclohexanone, 355.05 K): 0.0823
solubility (mole fraction) (in toluene, 291.05 K): 0.0031
solubility (mole fraction) (in toluene, 296.35 K): 0.0037
solubility (mole fraction) (in toluene, 299.15 K): 0.0041
solubility (mole fraction) (in toluene, 302.95 K): 0.0047
solubility (mole fraction) (in toluene, 306.05 K): 0.0053
solubility (mole fraction) (in toluene, 310.15 K): 0.0061
solubility (mole fraction) (in toluene, 315.95 K): 0.0075
solubility (mole fraction) (in toluene, 321.05 K): 0.0089
solubility (mole fraction) (in toluene, 325.15 K): 0.0103
solubility (mole fraction) (in toluene, 330.65 K): 0.0124
solubility (mole fraction) (in toluene, 334.45 K): 0.014
solubility (mole fraction) (in toluene, 340.75 K): 0.0175
solubility (mole fraction) (in toluene, 343.55 K): 0.0192
solubility (mole fraction) (in toluene, 348.45 K): 0.0226
solubility (mole fraction) (in toluene, 350.65 K): 0.0244
solubility (mole fraction) (in toluene, 354.45 K): 0.0276
